Columns and labels:
IL-6 mRNA in HBL1 cells = assay: IL-6 mRNA expression (Taqman); format: cell-based; details: HBL1, 24 hours, 10 nM to 10 uM
From the text: (§1) Constitutive activation of the NFkB pathway is a molecular hallmark of ABC DLBCL cells and is required for their proliferation and survival. See Davis, R. E., et al., J Exp Med, 194(12), 1861-1874 (2001). To confirm that the growth inhibitory effect in response to PKC inhibition is mediated through modulation of NFkB pathway signaling, the expression of NFkB pathway genes were monitored in response to AEB071 treatment. The NFkB-pathway-induced cytokine IL-6 was used as a marker to study NFkB pathway modulation by PKC inhibitors. See Lam, L. T., et al., Blood 111(7):3701-13 (2008). To measure IL-6 mRNA levels, cells were plated in […] plates in 2 ml media at 2M/ml, then treated with DMSO or inhibitors from 10 nM to 10 uM (4-fold dilutions) for 24 hours. Total RNA was harvested using the RNeasy kit (Qiagen, #74104) and cDNA was made from 1 μg total RNA using the High Capacity cDNA kit (ABI, #4368814), according to manufacturer's protocols. Taqman probes (ABI: IL-6, Hs00174131_m1) were used with Gene Expression Master Mix (ABI, 4369510) to determine the amount of mRNA expression for IL-6 relative to an endogenous control gene (ABI: TBP, 4326322E) and the DMSO control using the delta-delta Ct method.

[1] = test system: IL-6 mRNA in OCI-Ly10 cells; assay: IL-6 mRNA expression (Taqman); format: cell-based; details: OCI-Ly10, 24 hours, 10 nM to 10 uM
From the text: as §1

[2] = test system: IL-6 mRNA in OCI-Ly3 cells; assay: IL-6 mRNA expression (Taqman); format: cell-based; details: OCI-Ly3 (mutant CARD11), 24 hours, 10 nM to 10 uM
From the text: as §1

IL-6 mRNA in TMD8 cells = assay: IL-6 mRNA expression (Taqman); format: cell-based; details: TMD8, 24 hours, 10 nM to 10 uM
From the text: as §1

[3] = test system: IL-6 secretion in TMD8 cells; assay: IL-6 secretion (Quantikine ELISA); format: cell-based; details: Homo sapiens; TMD8, ELISA of supernatant, 48 hours
Procedure: The fact that IL-6 is secreted from cells allowed for monitoring of IL-6 levels in cell supernatants. IL-6 secretion was determined by Quantikine ELISA using supernatant from treated cells. Cells were washed and plated at 100,000 cells/well in 100 ul in fresh media in round-bottom 96-well plates (Corning, #3358). The cells were then treated with DMSO or inhibitors at concentrations ranging from 80 nM to 10 uM (2-fold dilutions), and incubated at 37° C. for 48 hours. Then the conditioned media was transferred to v-bottom 96-well plates (Nunc, #12565436). The level of IL-6 secretion was determined by the Quantkine colorimetric ELISA kit from (R & D Systems, #D6050), according to the manufacturer's instructions. For the IL-6 ELISA, the conditioned media was diluted 1:2 with fresh media (except ion: the HBL1 conditioned media was not diluted, it was used 1:1). In FIG. 2, IL-6 secretion for each dose is expressed as a percentage of IL-6 secretion from cells treated with DMSO.

[4] = test system: IL-10 mRNA in TMD8 xenograft tumor; assay: IL-10 mRNA expression in TMD8 xenograft tumor tissue (PD arm); format: in vivo, SCID-beige mice
Procedure: To confirm that the growth inhibitory effect in response to PKC inhibition is mediated through modulation of NFkB pathway signaling, the mRNA expression of IL-10 was monitored in response to AEB071 treatment in a PD arm of the in vivo study. Mice were implanted with TMD8 cells as described above, and when the tumor volume reached ˜160 mm^3, a single dose of 80 mg/kg AEB071 was administered. Tumor samples were harvested and snap frozen in liquid nitrogen, at 1 hour or 8 hours following the single does of AEB071. Tissue samples were homogenized and lysed in RLT buffer (Qiagen, #74104) with Reagent DX (Qiagen, 19088) using the TissueLyser II (Qiagen, 85300). Total RNA was harvested using the RNeasy kit (Qiagen, #74104) and cDNA was made from 1 μg total RNA using the High Capacity cDNA kit (ABI, #4368814), according to manufacturer's protocols. The IL-10 Taqman probe (ABI, Hs00174086_m1) was used with Gene Expression Master Mix (ABI, 4369510) to determine the amount of mRNA expression for IL-10 relative to an endogenous control gene (ABI: TBP, 4326322E) and the DMSO control using the delta-delta Ct method. […] Consistent with the in vitro kinetics of NFkB target gene downregulation by AEB071, IL-10 mRNA expression was unaffected after just 1 hour of treatment (see, FIG. 3A).

For `CN1CCN(c2nc(C3=C(c4c[nH]c5ccccc45)C(=O)NC3=O)c3ccccc3n2)CC1` [AEB071, 3-(1H-Indol-3-yl)-4-[2-(4-methylpiperazin-1-yl)quinazolin-4-yl]-1H-pyrrole-2,5-dione], which “IL-6 mRNA expression” value (IL-6 mRNA in HBL1 cells) is on record?
Its value is “dose-dependent decrease”.

And the “IL-6 mRNA expression” value [1]?
The value was “dose-dependent decrease”.

And the “IL-6 mRNA expression” value [2]?
The value was “unaffected”.

And the “IL-6 mRNA expression” value (IL-6 mRNA in TMD8 cells)?
The value was “dose-dependent decrease”.

And the IC50 [3]?
Its IC50 is less than 200 nM.

And the “IL-10 mRNA expression in xenograft tumor tissue” value ([4]; 1 hour after single dose of 80 mg/kg)?
The value was “unaffected”.

What about the “IL-10 mRNA expression in xenograft tumor tissue” value ([4]; 8 hours after single dose of 80 mg/kg) of the same molecule?
The value was “decrease”.

Reference: patent US8748428B2, “Use of a PKC inhibitor” (Novartis AG, priority 2010, dated 2014)
